Read-outs that look alike come from different tables or passages of the source.
Experiments:
Type in all cases: in vivo, human
[1] = Pharmacokinetic analysis of multiple doses of sepiapterin (once daily for 7 days, fed subjects)
Source text: Methods: Three cohorts of eight fed subjects each were randomized to receive once-daily sepiapterin or placebo for 7 days in a 6:2 ratio. A sentinel dose strategy was also used for administration of the highest sepiapterin dose.

[2] = Adverse events in patients with PKU on PTC923 or sapropterin dihydrochloride; settings: for Headache (all-cause AE): transient
Source text: PTC923 safety was monitored and adverse events (AEs) were coded using the Medical Dictionary for Regulatory Activities (MedDRA®) version 21.0. Treatment-emergent adverse events (TEAEs) were defined as AE that began on or after first dose of study drug. A TEAE was associated with the study treatment currently being received, or the last study treatment before its onset. A treatment-related TEAE was, in the judgment of the investigator possibly, probably or definitely related to treatment. A serious AE (SAE) was defined as resulting in death, life-threatening AE, inpatient hospitalization or prolongation of existing hospitalization, a persistent or significant disability/incapacity or a substantial disruption of the ability to conduct normal life functions, or a congenital anomaly/birth defect.

[3] = Food effect on administration of sepiapterin: plasma sepiapterin and BH4 concentrations, fasted vs fed; settings: sepiapterin 10 mg/kg oral; for concentration at 0 h / concentration at 0.5 h / concentration at 1 h / concentration at 2 h / concentration at 4 h / concentration at 8 h / concentration at 12 h / concentration at 24 h: human, oral, 10 mg/kg; for concentration at 0 h: 0 h (predose)
Method: Method: Subjects received 2 oral doses of sepiapterin (10 mg/kg) separated by 1 week in a fasted and fed state. Subjects were fed a standard high-fat (approximately 50 percent of total caloric content of the meal) and high-calorie (approximately 800 to 1000 calories) meal starting 30 minutes prior to receiving their second oral dose of sepiapterin on Day 8.
Sampling for PK analysis occurred predose on Days 1 and 8 (within 30 minutes before dosing) and 0.5 hr, 1 hr, 2 hr, 4 hr, 8 hr, 12 hr, and 24 hr after the doses on Days 1 and 8. The blood concentrations of sepiapterin and BH4 were analyzed by MNG Labs.

[4] = plasma, fasted, read-out: Concentration in Plasma, Maximum
[5] = plasma, fasted, read-out: Concentration in Plasma, Mean
[6] = plasma, fasted, read-out: Concentration in Plasma, Median
[7] = plasma, fasted, read-out: Concentration in Plasma, Minimum
[8] = plasma, fed (high-fat meal), read-out: Concentration in Plasma, Maximum
[9] = plasma, fed (high-fat meal), read-out: Concentration in Plasma, Mean
[10] = plasma, fed (high-fat meal), read-out: Concentration in Plasma, Median
[11] = plasma, fed (high-fat meal), read-out: Concentration in Plasma, Minimum

C[C@H](O)C(=O)C1=Nc2c(nc(N)[nH]c2=O)NC1 [sepiapterin, Sepiapterin]
Cmax ([1]; Day 1, sepiapterin 20 mg/kg once daily, fed): 1.2 ng/mL
AUC0-24 ([1]; Day 7, sepiapterin 60 mg/kg once daily, fed): 0.023 µg·h/mL
Drug accumulation after 1 and 7 days of treatment (in words) ([1]; once-daily sepiapterin for 7 days): no drug accumulation
Patients reporting any adverse event ([2]; 20 mg/kg): 25%
Patients reporting severe AE ([2]; 20 mg/kg): 4%
Patients reporting treatment-related AE ([2]; 20 mg/kg): 0%
Headache (all-cause AE) ([2]; 20 mg/kg): 4%
Patients reporting any adverse event ([2]; 60 mg/kg): 29%
Patients reporting severe AE ([2]; 60 mg/kg): 0%
Patients reporting treatment-related AE ([2]; 60 mg/kg): 13%
Headache (all-cause AE) ([2]; 60 mg/kg): 17%
concentration at 0 h [3, 4]: 0 µM
concentration at 0 h [3, 5]: 0 µM
concentration at 0 h [3, 6]: 0 µM
concentration at 0 h [3, 7]: 0 µM
concentration at 0.5 h [3, 4]: 7.23 nM
concentration at 0.5 h [3, 5]: 2.85 nM
concentration at 0.5 h [3, 6]: 2.32 nM
concentration at 0.5 h [3, 7]: 0 nM
concentration at 1 h [3, 4]: 10.2 nM
concentration at 1 h [3, 5]: 5.43 nM
concentration at 1 h [3, 6]: 4.82 nM
concentration at 1 h [3, 7]: 3.15 nM
concentration at 2 h [3, 4]: 6.65 nM
concentration at 2 h [3, 5]: 4.63 nM
concentration at 2 h [3, 6]: 4.71 nM
concentration at 2 h [3, 7]: 2.52 nM
concentration at 4 h [3, 4]: 3.93 nM
concentration at 4 h [3, 5]: 1.88 nM
concentration at 4 h [3, 6]: 2.37 nM
concentration at 4 h [3, 7]: 0 nM
concentration at 8 h [3, 4]: 0 nM
concentration at 8 h [3, 5]: 0 nM
concentration at 8 h [3, 6]: 0 nM
concentration at 8 h [3, 7]: 0 nM
concentration at 12 h [3, 4]: 0 µM
concentration at 12 h [3, 5]: 0 µM
concentration at 12 h [3, 6]: 0 µM
concentration at 12 h [3, 7]: 0 µM
concentration at 24 h [3, 4]: 0 µM
concentration at 24 h [3, 5]: 0 µM
concentration at 24 h [3, 6]: 0 µM
concentration at 24 h [3, 7]: 0 µM
concentration at 0 h [3, 8]: 0 µM
concentration at 0 h [3, 9]: 0 µM
concentration at 0 h [3, 10]: 0 µM
concentration at 0 h [3, 11]: 0 µM
concentration at 0.5 h [3, 8]: 3.22 nM
concentration at 0.5 h [3, 9]: 0.63 nM
concentration at 0.5 h [3, 10]: 0 nM
concentration at 0.5 h [3, 11]: 0 nM
concentration at 1 h [3, 8]: 4.57 nM
concentration at 1 h [3, 9]: 2.38 nM
concentration at 1 h [3, 10]: 2.42 nM
concentration at 1 h [3, 11]: 0 nM
concentration at 2 h [3, 8]: 5.92 nM
concentration at 2 h [3, 9]: 2.96 nM
concentration at 2 h [3, 10]: 2.91 nM
concentration at 2 h [3, 11]: 0 nM
concentration at 4 h [3, 8]: 5.56 nM
concentration at 4 h [3, 9]: 2.96 nM
concentration at 4 h [3, 10]: 2.5 nM
concentration at 4 h [3, 11]: 0 nM
concentration at 8 h [3, 8]: 2.19 nM
concentration at 8 h [3, 9]: 0.18 nM
concentration at 8 h [3, 10]: 0 nM
concentration at 8 h [3, 11]: 0 nM
concentration at 12 h [3, 8]: 0 µM
concentration at 12 h [3, 9]: 0 µM
concentration at 12 h [3, 10]: 0 µM
concentration at 12 h [3, 11]: 0 µM
concentration at 24 h [3, 8]: 0 µM
concentration at 24 h [3, 9]: 0 µM
concentration at 24 h [3, 10]: 0 µM
concentration at 24 h [3, 11]: 0 µM
Geometric mean ratio (fasted/fed, 90% CI) for AUClast ([3]; plasma): 1.29 (0.84 to 2.00)
Geometric mean ratio (fasted/fed, 90% CI) for Cmax ([3]; plasma): 1.57 (1.21 to 2.0)
Cmax in the plasma, fed compared to fasted subjects (in words) [3]: much lower

Source: patent US20220362249A1, “METHODS FOR TREATING […]” (PTC Therapeutics MP, Inc., priority 2019, published 2022)
